Measured values published in patent US5705498A, “Piperidine derivatives as 5-HT4 receptor antagonists” (SmithKline Beecham plc., priority 1992, dated 1998).

Target: T1, 5-HT4 receptor (Cavia porcellus, UniProt O70528)
T1 construct: Longitudinal muscle-myenteric plexus preparations, approximately 3 cm long, are obtained from the distal colon region; from tissue; host or cells: guinea-pig distal colon, longitudinal muscle-myenteric plexus preparation
Experiment: Guinea pig colon longitudinal muscle-myenteric plexus, antagonism of 5-HT-evoked contraction
Details: guinea-pig distal colon; contraction evoked by 5-HT; methiothepin 10^-7 M and granisetron 10^-6 M present; read-out: pIC50 (-log concentration of antagonist which reduces the contraction by 50%) (converted)
Protocol: Male guinea-pigs, weighing 250-400 g are used. Longitudinal muscle-myenteric plexus preparations, approximately 3 cm long, are obtained from the distal colon region. These are suspended under a 0.5 g load in isolated tissue baths containing Krebs solution bubbled with 5% CO2 in O2 and maintained at 37° C. In all experiments, the Krebs solution also contains methiothepin 10^-7 M and granisetron 10^-6 M to block effects at 5-HT1, 5-HT2 and 5-HT3 receptors.
After construction of a simple concentration-response curve with 5-HT, using 30 s contact times and a 15 min dosing cycle, a concentration of 5-HT is selected so as to obtain a contraction of the muscle approximately 40-70% maximum(10^-9 M approx). The tissue is then alternately dosed every 15 min with this concentration of 5-HT and then with an approximately equi-effective concentration of the nicotine receptor stimulant, dimethylphenylpiperazinium (DMPP). After obtaining consistent responses to both 5-HT and DMPP, increasing concentrations of a putative 5-HT4 receptor antagonist are then added to the bathing solution. The effects of this compound are then determined as a percentage reduction of the contractions evoked by 5-HT or by DMPP. […] A compound which reduces the response to 5-HT but not to DMPP is believed to act as a 5-HT4 receptor antagonist.

T1 sequence (O70528 whole entry): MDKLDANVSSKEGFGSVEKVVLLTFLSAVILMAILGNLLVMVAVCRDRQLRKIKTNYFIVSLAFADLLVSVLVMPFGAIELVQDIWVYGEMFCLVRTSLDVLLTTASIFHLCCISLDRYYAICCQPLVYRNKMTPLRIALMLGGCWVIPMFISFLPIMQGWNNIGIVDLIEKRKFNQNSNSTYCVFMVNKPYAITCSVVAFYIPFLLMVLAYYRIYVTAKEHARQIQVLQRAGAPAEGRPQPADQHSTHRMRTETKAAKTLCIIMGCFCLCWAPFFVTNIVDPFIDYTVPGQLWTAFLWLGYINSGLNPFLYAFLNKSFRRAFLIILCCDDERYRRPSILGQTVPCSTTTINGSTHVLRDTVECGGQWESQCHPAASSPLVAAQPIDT

SMILES: Nc1c(Cl)cc(C(=O)OCC2CCN(Cc3cccnc3)CC2)c2c1OCCO2 [Example E1, 5-(1-(3-Pyridylmethyl)-4-piperidinyl)methyl-8-amino-7-chloro-1,4-benzodioxancarboxylate]
- IC50: < 1 nM
